Structures can show the parent of a compound that is named as a salt. Positions of bridges follow the written chain, without caps; N, C: chain ends. Non-standard residues stand in square brackets, D forms with d. Residues, ends and D or L forms follow the SMILES beside them. NBnAla = C[C@H](NCc1ccccc1)C(=O)O

The target in test [1] is T1, Genome polyprotein (dengue virus type 2, UniProt P29990). Kind of test: Inhibition of DENV2 NS2B-NS3 protease.
Test [2] concerns the target T1, Genome polyprotein. The test can be described thus: Binding affinity to DENV2 NS2B/NS3 protease assessed as inhibition constant.
Test [3] is described as follows: Binding affinity to wildtype DENV3 protease assessed as inhibition constant using [Ac-[D-EDANS]KRRSWP[K-DABCYL]-AMIDE] as substrate by FRET-based enzymatic assay. On the set-up: species or system dengue virus type 3.
For a further test, the system named is dengue virus type 2. The test can be described thus: Antiviral activity against Dengue virus 2 infected in african green monkey Vero cells assessed as reduction in viral titer. Type of test: functional, organism-based.

T1 sequence (P29990 1346-1475 limits assumed): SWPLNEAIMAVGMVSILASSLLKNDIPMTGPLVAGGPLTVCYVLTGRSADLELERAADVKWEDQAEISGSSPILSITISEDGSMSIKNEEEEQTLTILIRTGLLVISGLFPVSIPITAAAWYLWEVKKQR
T1 sequence (P29990 1476-2093 limits assumed): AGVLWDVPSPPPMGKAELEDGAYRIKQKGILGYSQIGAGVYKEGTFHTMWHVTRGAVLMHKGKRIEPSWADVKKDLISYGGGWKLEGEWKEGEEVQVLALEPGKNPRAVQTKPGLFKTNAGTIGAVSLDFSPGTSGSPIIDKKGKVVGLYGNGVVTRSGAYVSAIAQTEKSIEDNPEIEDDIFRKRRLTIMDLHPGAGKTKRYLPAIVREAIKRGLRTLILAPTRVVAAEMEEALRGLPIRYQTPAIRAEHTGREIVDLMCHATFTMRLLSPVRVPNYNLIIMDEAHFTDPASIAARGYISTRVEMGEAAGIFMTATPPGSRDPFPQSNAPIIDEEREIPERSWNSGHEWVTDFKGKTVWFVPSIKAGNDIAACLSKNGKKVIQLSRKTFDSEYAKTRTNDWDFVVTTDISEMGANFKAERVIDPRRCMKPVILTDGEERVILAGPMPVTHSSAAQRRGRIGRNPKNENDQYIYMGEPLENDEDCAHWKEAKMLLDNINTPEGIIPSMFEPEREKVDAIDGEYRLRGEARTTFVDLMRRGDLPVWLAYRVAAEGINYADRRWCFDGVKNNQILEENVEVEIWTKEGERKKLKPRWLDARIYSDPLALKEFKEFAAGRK

For orientation: IC50 means the midpoint of a concentration-inhibition curve. Turning to `CCN1/C(=C/C=C/c2oc3ccc4ccccc4c3[n+]2CC)Oc2ccc3ccccc3c21`, the IC50 against Genome polyprotein [1] is 27 µM. As a reminder, the Ki is a dissociation constant, usually derived from enzyme kinetics or from competition with a known ligand. In the case of `N=C(N)Nc1ccc(OC(=O)c2ccc(NC(=N)N)cc2)cc1`, the Ki on Genome polyprotein [2] and at Genome polyprotein [1] was 2 µM each time.

As for `N=C(N)N/N=C/c1ccc(/C=N/NC(=N)N)cc1`, the Ki at Genome polyprotein [2] and on Genome polyprotein [1] was 44 µM each time. Take `CC[C@H](C)[C@@H]1NC(=O)[C@H](CCCNC(=N)N)NC(=O)[C@H](C(C)C)NC(=O)[C@H](CCCNC(=N)N)NC(=O)[C@@H](NC(=O)[C@@H]2CCCN2)CSSC[C@@H](C(=O)N[C@H](C)C(=O)O)NC(=O)CNC(=O)CNC(=O)[C@H](CC(=O)O)NC1=O`: the Ki in test [3] is 35.8 µM. On the same count and under the same terms, then `CC[C@H](C)[C@@H]1NC(=O)[C@H](CCCNC(=N)N)NC(=O)[C@H](C)NC(=O)[C@H](CCCNC(=N)N)NC(=O)[C@@H](NC(=O)[C@@H]2CCCN2)CSSC[C@@H](C(=O)N[C@H](C)C(=O)O)NC(=O)CNC(=O)CNC(=O)[C@H](CC(=O)O)NC1=O`, with 69.3 µM. One may read the EC50 as the midpoint of the concentration-response curve. Regarding `COc1cc2nc(NC(=O)c3ccccc3Sc3ccc(C(F)(F)F)cc3)sc2cc1OC`, in the test with dengue virus type 2, the EC50 worked out at 2.5 µM. Turning to `CC[C@H](C)[C@@H]1NC(=O)[C@H](CCCNC(=N)N)NC(=O)[C@H](C(C)C)NC(=O)[C@H](CCCNC(=N)N)NC(=O)[C@@H](NC(=O)[C@@H]2CCCN2)CSSC[C@@H](C(=O)N[C@H](C)C(=O)O)NC(=O)CNC(=O)CNC(=O)[C@H](Cc2ccc(O)cc2)NC1=O`, in test [3], the Ki was determined as 25.6 µM. For `CC[C@H](C)[C@@H]1NC(=O)[C@H](Cc2c[nH]c3ccccc23)NC(=O)[C@H](C)NC(=O)[C@H](CCCNC(=N)N)NC(=O)[C@@H](NC(=O)[C@@H]2CCCN2)CSSC[C@@H](C(=O)N[C@H](C)C(=O)O)NC(=O)CNC(=O)CNC(=O)[C@H](Cc2ccc(O)cc2)NC1=O`, the Ki in test [3] worked out at 145 µM. Turning to `O=[N+]([O-])c1ccc(N=Nc2ccc(O)c3ccccc23)c([N+](=O)[O-])c1`, the Ki at Genome polyprotein [2] and at Genome polyprotein [1] was 15 µM throughout. Turning to `CC[C@H](C)[C@@H]1NC(=O)[C@H](Cc2c[nH]c3ccccc23)NC(=O)[C@H](C)NC(=O)[C@H](CCCNC(=N)N)NC(=O)[C@@H](NC(=O)[C@@H]2CCCN2)CSSC[C@@H](C(=O)N[C@H](CCCNC(=N)N)C(=O)O)NC(=O)CNC(=O)CNC(=O)[C@H](Cc2ccc(O)cc2)NC1=O`, the Ki in test [3] was determined as 19.7 µM. Still for that read-out and setting: the result for `CC[C@H](C)[C@@H]1NC(=O)[C@H](CCCNC(=N)N)NC(=O)[C@H](C)NC(=O)[C@H](CCCNC(=N)N)NC(=O)[C@@H](NC(=O)c2ccccc2)CSSC[C@@H](C(=O)N[C@H](C)C(=O)O)NC(=O)CNC(=O)CNC(=O)[C@H](Cc2ccc(O)cc2)NC1=O` reads 33.2 µM.

For the compound `N=C(N)NCCC[C@@H]1NC(=O)[C@H](CCCCN)NC(=O)CNC(=O)[C@@H](N)CSSC[C@@H](C(=O)O)NC(=O)[C@H](CO)NC(=O)[C@H](CCCCN)NC1=O` (H-CGKRKSC-OH; disulfide 1-7), the inhibition constant Ki at Genome polyprotein [2] and at Genome polyprotein [1] was 1.4 µM throughout. With `CC[C@H](C)[C@@H]1NC(=O)[C@H](CCCNC(=N)N)NC(=O)[C@H](C)NC(=O)[C@H](CCCNC(=N)N)NC(=O)[C@@H](N)CSSC[C@@H](C(=O)N[C@@H](C)C(=O)O)NC(=O)CNC(=O)CNC(=O)[C@H](Cc2ccc(O)cc2)NC(=O)CNC1=O` (H-CRARIGYGGCA-OH; disulfide 1-10), the inhibitory constant (Ki) in test [3] worked out at 145 µM. Still for that read-out and setting: then `CC[C@H](C)[C@@H]1NC(=O)[C@H](CCCNC(=N)N)NC(=O)[C@H](C)NC(=O)[C@H](CCCCN)NC(=O)[C@@H](NC(=O)[C@@H]2CCCN2)CSSC[C@@H](C(=O)N[C@@H](C)C(=O)O)NC(=O)CNC(=O)CNC(=O)[C@H](Cc2ccc(O)cc2)NC(=O)CNC1=O` (H-PCKARIGYGGCA-OH; disulfide 2-11), with 377 µM. Turning to `CC[C@H](C)[C@@H]1NC(=O)[C@H](CCCNC(=N)N)NC(=O)[C@H](C)NC(=O)[C@H](CCCCN)NC(=O)[C@@H](NC(=O)[C@@H]2CCCN2)CSSC[C@@H](C(=O)N[C@@H](C)C(=O)O)NC(=O)CNC(=O)CNC(=O)[C@H](Cc2ccc(O)cc2)NC(=O)CNC(=O)CNC(=O)[C@H]([C@@H](C)CC)NC1=O` (H-PCKARIIGGYGGCA-OH; disulfide 2-13), in test [3], the Ki is 678 µM. On the same count and under the same terms, then `CC[C@H](C)[C@@H]1NC(=O)[C@H](CCCNC(=N)N)NC(=O)[C@H](C)NC(=O)[C@H](CCCCN)NC(=O)[C@@H](NC(=O)[C@@H]2CCCN2)CSSC[C@@H](C(=O)N[C@@H](CCCNC(=N)N)C(=O)O)NC(=O)CNC(=O)CNC(=O)[C@H](Cc2ccc(O)cc2)NC(=O)CNC(=O)CNC(=O)[C@H]([C@@H](C)CC)NC1=O` (H-PCKARIIGGYGGCR-OH; disulfide 2-13), with 232 µM; and `CC[C@H](C)[C@@H]1NC(=O)[C@H](CCCNC(=N)N)NC(=O)[C@H](C)NC(=O)[C@H](CCCCN)NC(=O)[C@@H](NC(=O)[C@@H]2CCCN2)CSSC[C@@H](C(=O)N[C@@H](C)C(=O)O)NC(=O)CNC(=O)CNC(=O)[C@H](Cc2ccc(O)cc2)NC1=O` (H-PCKARIYGGCA-OH; disulfide 2-10), with 14.5 µM. Same read-out and setting: the result for `CC[C@H](C)[C@@H]1NC(=O)[C@H](CCCNC(=N)N)NC(=O)[C@H](C)NC(=O)[C@H](CCCNC(=N)N)NC(=O)[C@@H](NC(=O)[C@@H]2CCCN2)CSSC[C@@H](C(=O)N[C@@H](C)C(=O)O)NC(=O)CNC1=O` (H-PCRARIGCA-OH; disulfide 2-8) reads 101 µM. Still for that read-out and setting: then `CC[C@H](C)[C@@H]1NC(=O)[C@H](CCCNC(=N)N)NC(=O)[C@H](C)NC(=O)[C@H](CCCNC(=N)N)NC(=O)[C@@H](NC(=O)[C@@H]2CCCN2)CSSC[C@@H](C(=O)N[C@@H](C)C(=O)O)NC(=O)CNC(=O)CNC1=O` (H-PCRARIGGCA-OH; disulfide 2-9), with 780 µM; and `CC[C@H](C)[C@@H]1NC(=O)[C@H](CCCNC(=N)N)NC(=O)[C@H](C)NC(=O)[C@H](CCCNC(=N)N)NC(=O)[C@@H](NC(=O)[C@@H]2CCCN2)CSSC[C@@H](C(=O)N[C@@H](CCCNC(=N)N)C(=O)O)NC(=O)CNC(=O)CNC1=O` (H-PCRARIGGCR-OH; disulfide 2-9), with 29.7 µM; and `CC[C@H](C)[C@@H]1NC(=O)[C@H](CCCNC(=N)N)NC(=O)[C@H](C)NC(=O)[C@H](CCCNC(=N)N)NC(=O)[C@@H](NC(=O)[C@@H]2CCCN2)CSSC[C@@H](C(=O)N[C@@H](C)C(=O)O)NC(=O)CNC(=O)[C@H](Cc2ccc(O)cc2)NC1=O` (H-PCRARIYGCA-OH; disulfide 2-9), with 468 µM.

Regarding `CC[C@H](C)[C@@H]1NC(=O)[C@H](CCCNC(=N)N)NC(=O)[C@H](C)NC(=O)[C@H](CCCNC(=N)N)NC(=O)[C@@H](NC(=O)[C@@H]2CCCN2)CSSC[C@@H](C(=O)N[C@@H](C)C(=O)O)NC(=O)CNC(=O)CNC(=O)[C@H](Cc2ccc(O)cc2)NC1=O` (H-PCRARIYGGCA-OH; disulfide 2-10), the inhibition constant Ki in test [3] was found to be 966 µM. Regarding `C[C@H](NCc1ccccc1)C(=O)N[C@@H](CCCCN)C(=O)N[C@@H](CCCNC(=N)N)C(=O)N[C@@H](CCCNC(=N)N)C(=O)O` (H-[NBnAla]KRR-OH), the Ki at Genome polyprotein [2] and at Genome polyprotein [1] was 5.3 µM in each case. `CCCCC(CC)CN=C(N)N=C(N)NCCCCCCNC(N)=NC(N)=NCC(CC)CCCC` (configuration not stated) [ALEXIDINE HYDROCHLORIDE] yielded a Ki at Genome polyprotein [1] of 41 µM. Regarding `CO[C@H]1C[C@H](O[C@@H]2/C(C)=C/C[C@@H]3C[C@@H](C[C@]4(CC[C@H](C)[C@@H](C5CCCCC5)O4)O3)OC(=O)[C@@H]3C=C(C)/C(=N/O)[C@H]4OC/C(=C\C=C\[C@@H]2C)[C@]43O)O[C@@H](C)[C@@H]1O` [SELAMECTIN], on Genome polyprotein [2], the Ki stood at 63 µM. For IVERMECTIN, the inhibition constant Ki at Genome polyprotein [2] and at Genome polyprotein [1] was 79 µM throughout.

For the origin of these results see ChEMBL document CHEMBL5096200, “A short survey of dengue protease inhibitor development in the past 6 years (2015-2020) with an emphasis on similarities between DENV and SARS-CoV-2 proteases” (Bioorg Med Chem, 2021).
